According to US20170305943A1, “COMPOUNDS FOR THE TREATMENT OF BACTERIAL INFECTIONS” (priority 2014, published 2017):
Converted amounts (≈) assume the structure as drawn.

Tested on: Clostridium difficile (Isolate ID ATCC 9689)
Assay: Bacterial Assay: Determination of Antibacterial Activity (MIC, broth microdilution or agar dilution)
Assay type: cell-based
Details: Clostridioides difficile, ATCC9689, 48 h, read-out: C. difficile MIC Activity Range
Procedure: Bacterial Assay: Determination of Antibacterial Activity Compounds of the invention were tested for antimicrobial activity by susceptibility testing in liquid or on solid media. Minimum inhibitory concentrations (MICs) for compounds against each strain were determined by the broth microdilution or agar dilution method according to the guidelines of the Clinical Laboratories and Standards Institute, formerly the National Committee for Clinical Laboratory Standards (Clinical Laboratories and Standards Institute. Methods for Dilution Antimicrobial Susceptibility Tests for Bacteria That Grow Anaerobically; Approved Standard-Seventh Edition. Document M11-A7, CLSI, Wayne, Pa., 2007, Clinical Laboratories and Standards Institute). Briefly MICs were determined by visible inspection after 48 hours of growth in the presence of compounds, cultures were grown at 37° C. in anaerobic gas packs using reinforced clostridial medium supplemented with 0.1% defribrinated horse blood. The bacterial strains tested include C. difficile (Clostridium difficile (Isolate ID ATCC 9689)) (Table 2) and two drug resistant clinical isolates (Clostridium difficile (Isolate ID BI-9) and Clostridium difficile (Isolate ID 027-01) (Table 3).
MICs were determined to be within the activity ranges “A” activity≦1.01 μg/mL; “B” activity>1.0 μg/mL-4.0 μg/mL; “C” activity>4.0 μg/mL-16 μg/mL

SMILES | MIC [µg/mL]
NC(=O)c1c(F)ccc(O[C@H](CO)c2nc(-c3ccc(C(F)(F)F)cc3)c(Br)o2)c1F (racemic) [Compound 32, 3-(1-{5-bromo-4-[4-(trifluoromethyl)phenyl]-1,3-oxazol-2-yl}-2-hydroxyethoxy)-2,6-difluorobenzamide] | < 1.01
NC(=O)c1c(F)ccc(OC(COC(=O)Nc2cccnc2)c2nc(-c3ccc(C(F)(F)F)cc3)c(Br)o2)c1F (racemic) [Compound 64, 2-{5-bromo-4-[4-(trifluoromethyl)phenyl]-1,3-oxazol-2-yl}-2-(3-carbamoyl-2,4-difluorophenoxy)ethyl pyridin-3-ylcarbamate] | < 1.01
NC(=O)c1c(F)ccc(OC(CNC(=O)OCc2ccccc2)c2nc(-c3ccc(C(F)(F)F)cc3)c(Br)o2)c1F (racemic) [Compound 93, benzyl [2-{5-bromo-4-[4-(trifluoromethyl)phenyl]-1,3-oxazol-2-yl}-2-(3-carbamoyl-2,4-difluorophenoxy)ethyl]carbamate] | 1 to 4 (≈ 1.56 to 6.25 µM)
COC(=O)NCC(Oc1ccc(F)c(C(N)=O)c1F)c1nc(-c2ccc(C(F)(F)F)cc2)c(Br)o1 (racemic) [Compound 94, methyl [2-{5-bromo-4-[4-(trifluoromethyl)phenyl]-1,3-oxazol-2-yl}-2-(3-carbamoyl-2,4-difluorophenoxy)ethyl]carbamate] | 1 to 4 (≈ 1.77 to 7.09 µM)
CCNC(=O)NCC(Oc1ccc(F)c(C(N)=O)c1F)c1nc(-c2ccc(C(F)(F)F)cc2)c(Br)o1 (racemic) [Compound 95, 3-(1-{5-bromo-4-[4-(trifluoromethyl)phenyl]-1,3-oxazol-2-yl}-2-[(ethylcarbamoyl)amino]ethoxy)-2,6-difluorobenzamide] | < 1.01
NC(=O)c1c(F)ccc(OC(CNC(=O)c2ccccc2)c2nc(-c3ccc(C(F)(F)F)cc3)c(Br)o2)c1F (racemic) [Compound 96, 3-[2-(benzoylamino)-1-{5-bromo-4-[4-(trifluoromethyl)phenyl]-1,3-oxazol-2-yl}ethoxy]-2,6-difluorobenzamide] | < 1.01
NC(=O)c1c(F)ccc(OC(CNC(=O)c2cccnc2)c2nc(-c3ccc(C(F)(F)F)cc3)c(Br)o2)c1F (racemic) [Compound 97, N-[2-{5-bromo-4-[4-(trifluoromethyl)phenyl]-1,3-oxazol-2-yl}-2-(3-carbamoyl-2,4-difluorophenoxy)ethyl]pyridine-3-carboxamide] | 1 to 4 (≈ 1.64 to 6.54 µM)
NC(=O)c1c(F)ccc(OC(CNC(=O)c2ccccn2)c2nc(-c3ccc(C(F)(F)F)cc3)c(Br)o2)c1F (racemic) [Compound 98, N-[2-{5-bromo-4-[4-(trifluoromethyl)phenyl]-1,3-oxazol-2-yl}-2-(3-carbamoyl-2,4-difluorophenoxy)ethyl]pyridine-2-carboxamide] | 1 to 4 (≈ 1.64 to 6.54 µM)
NC(=O)c1c(F)ccc(OC(CO)c2nc(-c3ccc(Cl)s3)c(Br)o2)c1F (racemic) [Compound 101, 3-{1-[5-bromo-4-(5-chlorothiophen-2-yl)-1,3-oxazol-2-yl]-2-hydroxyethoxy}-2,6-difluorobenzamide] | 1 to 4 (≈ 2.08 to 8.34 µM)
CCCCCCCCCOc1ccc(Cl)c(C(N)=O)c1F [Compound 2, 6-chloro-2-fluoro-3-(nonyloxy)benzamide] | < 1.01
CCCCCC/C=C/COc1ccc(F)c(C(N)=O)c1F [Compound 3, 2,6-difluoro-3-[(2E)-non-2-en-1-yloxy]benzamide] | < 1.01
CCCCCCOCCOc1ccc(F)c(C(N)=O)c1F [Compound 4, 2,6-difluoro-3[2-(hexyloxy)ethoxy]benzamide] | 1 to 4 (≈ 3.32 to 13.3 µM)
CCCCCCCCCOc1ccc(F)c(C(N)=O)c1Cl [Compound 5, 2-chloro-6-fluoro-3-(nonyloxy)benzamide] | < 1.01
CC/C=C\CCCCCOc1ccc(F)c(C(N)=O)c1F [Compound 6, 2,6-difluoro-3-[(6Z)-non-6-en-1-yloxy]benzamide] | < 1.01
NC(=O)c1c(F)ccc(OCc2nc(-c3ccc(Cl)cc3)no2)c1F [Compound 13, 3-{[3-(4-chlorophenyl)-1,2,4-oxadiazol-5-yl]methoxy}-2,6-difluorobenzamide] | 1 to 4 (≈ 2.73 to 10.9 µM)
C=CCc1ccc2sc(COc3ccc(F)c(C(N)=O)c3F)nc2c1 [Compound 14, 2,6-difluoro-3-{[5-(prop-2-en-1-yl)-1,3-benzothiazol-2-yl]methoxy}benzamide] | 4 to 16 (≈ 11.1 to 44.4 µM)
NC(=O)c1c(F)ccc(OCc2nc(-c3ccc(F)cc3)cs2)c1F [Compound 15, 2,6-difluoro-3-{[4-(4-fluorophenyl)-1,3-thiazol-2-yl]methoxy}benzamide] | 1 to 4 (≈ 2.74 to 11 µM)

SMILES | MIC [µg/mL]
Cc1ccc(-c2nc(CCOc3ccc(F)c(C(N)=O)c3F)c(C)o2)cc1 [Compound 18, 2,6-difluoro-3-{2-[5-methyl-2-(4-methylphenyl)-1,3-oxazol-4-yl]ethoxy}benzamide] | 1 to 4 (≈ 2.69 to 10.7 µM)
COc1ccc(-c2nc(COc3ccc(F)c(C(N)=O)c3F)oc2Br)cc1 [Compound 22, 3-{[5-bromo-4-(4-methoxyphenyl)-1,3-oxazo1-2-yl]methoxy}-2,6-difluorobenzamide] | < 1.01
COc1ncc(-c2csc(C(C)Oc3ccc(F)c(C(N)=O)c3F)n2)s1 (stereo not shown) [Compound 23, 2,6-difluoro-3-[1-(2′-methoxy-4,5′-bi-1,3-thiazol-2-yl)ethoxy]benzamide] | 4 to 16 (≈ 10.1 to 40.3 µM)
COc1ccc(-c2nc(C(C)Oc3ccc(F)c(C(N)=O)c3F)oc2Br)cc1 (stereo not shown) [Compound 24, 3-{1-[5-bromo-4-(4-methoxyphenyl)-1,3-oxazol-2-yl]ethoxy}-2,6-difluorobenzamide] | < 1.01
NC(=O)c1c(F)ccc(OC(CO)c2nc(-c3ccc(Cl)cc3)cs2)c1F (stereo not shown) [Compound 25, 3-{1-[4-(4-chlorophenyl)-1,3-thiazol-2-yl]-2-hydroxyethoxy}-2,6-difluorobenzamide] | 4 to 16 (≈ 9.74 to 38.9 µM)
C=CCc1oc(C(C)Oc2ccc(F)c(C(N)=O)c2F)nc1-c1ccc(OC(F)(F)F)cc1 (stereo not shown) [Compound 26, 2,6-difluoro-3-(1-{5-(prop-2-en-1-yl)-4-[4-(trifluoromethoxy)phenyl]-1,3-oxazol-2-yl}ethoxy)benzamide] | 4 to 16 (≈ 8.54 to 34.2 µM)
CCC(Oc1ccc(F)c(C(N)=O)c1F)c1nc(-c2ccc(Cl)cc2)c(Br)o1 (stereo not shown) [Compound 27, 3-{1-[5-bromo-4-(4-chlorophenyl)-1,3-oxazol-2-yl]propoxy}-2,6-difluorobenzamide] | 1 to 4 (≈ 2.12 to 8.48 µM)
CCCc1oc(C(C)Oc2ccc(F)c(C(N)=O)c2F)nc1-c1ccc(OC(F)(F)F)cc1 (stereo not shown) [Compound 28, 2,6-difluoro-3-(1-{5-propyl-4-[4-(trifluoromethoxy)phenyl]-1,3-oxazol-2-yl}ethoxy)benzamide] | 4 to 16 (≈ 8.5 to 34 µM)
CC(Oc1ccc(F)c(C(N)=O)c1F)c1nc(-c2ccc(C(F)(F)F)cc2)c(Br)o1 (stereo not shown) [Compound 29, 3-(1-{5-bromo-4-[4-(trifluoromethyl)phenyl]-1,3-oxazol-2-yl}ethoxy)-2,6-difluorobenzamide] | < 1.01
CC(Oc1ccc(F)c(C(N)=O)c1F)c1nc(-c2ccc(Cl)cc2)ns1 (stereo not shown) [Compound 30, 3-{1-[3-(4-chlorophenyl)-1,2,4-thiadiazol-5-yl]ethoxy}-2,6-difluorobenzamide] | < 1.01
CC(=O)OCC(Oc1ccc(F)c(C(N)=O)c1F)c1nc(-c2ccc(C(F)(F)F)cc2)c(Br)o1 (stereo not shown) [Compound 31, 2-{5-bromo-4-[4-(trifluoromethyl)phenyl]-1,3-oxazol-2-yl}-2-(3-carbamoyl-2,4-difluorophenoxy)ethyl acetate] | < 1.01
CC(=O)OCC(Oc1ccc(F)c(C(N)=O)c1F)c1nc(-c2ccc(C(F)(F)F)cc2)c(Cl)o1 (stereo not shown) [Compound 34, 2-(3-carbamoyl-2,4-difluorophenoxy)-2-{5-chloro-4-[4-(trifluoromethyl)phenyl]-1,3-oxazol-2-yl}ethyl acetate] | < 1.01
CNCNC(=O)c1c(F)ccc(OC(C)c2nc(-c3ccc(OC(F)(F)F)cc3)c(Cl)o2)c1F (stereo not shown) [Compound 35, 3-(1-{5-chloro-4-[4-(trifluoromethoxy)phenyl]-1,3-oxazol-2-yl}ethoxy)-2,6-difluoro-N-[(methylamino)methyl]benzamide] | < 1.01
CN(C)CC(=O)OCC(Oc1ccc(F)c(C(N)=O)c1F)c1nc(-c2ccc(C(F)(F)F)cc2)c(Br)o1 (stereo not shown) [Compound 36, 2-{5-bromo-4-[4-(trifluoromethyl)phenyl]-1,3-oxazol-2-yl}-2-(3-carbamoyl-2,4-difluorophenoxy)ethyl N,N-dimethylglycinate] | < 1.01
CNCC(=O)OCC(Oc1ccc(F)c(C(N)=O)c1F)c1nc(-c2ccc(Cl)cc2)c(Cl)o1 (stereo not shown) [Compound 37, 2-(3-carbamoyl-2,4-difluorophenoxy)-2-[5-chloro-4-(4-chlorophenyl)-1,3-oxazol-2-yl]ethyl N-methylglycinate] | 4 to 16 (≈ 8 to 32 µM)
NC(=O)c1c(F)ccc(OC(COC(=O)CN2C(=O)c3ccccc3C2=O)c2nc(-c3ccc(C(F)(F)F)cc3)c(Br)o2)c1F (stereo not shown) [Compound 38, 2-{5-bromo-4-[4-(trifluoromethyl)phenyl]-1,3-oxazol-2-yl}-2-(3-carbamoyl-2,4-difluorophenoxy)ethyl (1,3-dioxo-1,3-dihydro-2H-isoindo1-2-yl)acetate] | < 1.01
CNCC(=O)OCC(Oc1ccc(F)c(C(N)=O)c1F)c1nc(-c2ccc(C(F)(F)F)cc2)c(Br)o1 (stereo not shown) [Compound 39, 2-{5-bromo-4-[4-(trifluoromethyl)phenyl]-1,3-oxazol-2-yl}-2-(3-carbamoyl-2,4-difluorophenoxy)ethyl N-methylglycinate] | < 1.01
